Source: paper PMC8350397, “GSK137, a potent small-molecule BCL6 inhibitor with in vivo activity, suppresses antibody responses in mice” (The Journal of Biological Chemistry, 2021)

Assays:
Assay type in all cases: binding
rat BCL6 and SMRT = biological target: T1, rat BCL6 and SMRT (Rattus norvegicus, UniProt B2GUV8, C67R/C84N/C8Q); experiment: BCL6 TR-FRET assay, rat BCL6 and SMRT
T1 construct: BCL6-Flag-6H-Avi (5-129) C8Q, C67R, C84N proteins; Flag (C); 6H (His6) (C); made in house; host or cells: E. coli
Procedure: (§1) Human, mouse and rat BCL6-Flag-6H-Avi (5-129) C8Q, C67R, C84N proteins were expressed in E. coli according to standard procedures and purified on Ni-NTA, followed by ion exchange on a Source 30Q column and size exclusion on an Superdex 200 column in a buffer of 20 mM Tris, 250 mM NaCl, 5 mM DTT, 5% glycerol, pH 8.5. All protein purities were estimated to be >90% by SDS-PAGE and the expected masses were confirmed by MS analysis. For TR-FRET assay protein was enzymatically biotinylated by treatment of protein at 100 µM with a 2 fold molar excess of biotin in the presence of 2 mM ATP and 1 µM BirA enzyme in a buffer of 50 mM bicine pH 8.3, 10 mM MgCl2 at 30 °C for 1 hour, followed by extensivedialysis against 50 mM Tris-Cl pH 8.0, 100 mM NaCl, 1 mM DTT using a 3.5 kDa cut-off membrane. Biotinylation was confirmed by MS analysis and concentration was determined by Bradford assay, after which protein was stored in aliquots at -80 °C.
(§2) Acceptor-labelled SMRT peptide H2N-[…](D2)-OH was dissolved in water by mass to give a 500 µM stock solution which was stored at -20 °C. Acceptor-labelled NCOR peptide H2N-[…](Alexa Fluor 647)-OH and acceptor-labelled BCOR peptide H2N-[…](Alexa Fluor 647)-OH were dissolved to a nominal concentration of 1 mM in DMSO, and stock solution concentration was determined by absorbance at 650 nm using an extinction coefficient of 270,000 M-1cm^-1. […]

[1] = biological target: T2, human BCL6 BTB-POZ domain (nuclear receptor co-repressor 1 peptide) (Homo sapiens, UniProt P41182, C67R/C84N/C8Q); experiment: BCL6 TR-FRET assay, NCOR peptide displacement; details: NCOR1 peptide, read-out: pIC50 Human TR-FRET nuclear receptor co-repressor 1 (converted)
T2 construct: BCL6-Flag-6H-Avi (5-129) C8Q, C67R, C84N proteins; Flag (C); 6H (His6) (C); made in house; host or cells: E. coli
Procedure: as §1, §2

mouse BCL6 and SMRT = biological target: T3, mouse BCL6 and SMRT (Mus musculus, UniProt P41183, C67R/C84N/C8Q); experiment: BCL6 TR-FRET assay, mouse BCL6 and SMRT
T3 construct: BCL6-Flag-6H-Avi (5-129) C8Q, C67R, C84N proteins; Flag (C); 6H (His6) (C); made in house; host or cells: E. coli
Procedure: as §1, §2

For `Cc1ncccc1[C@H]1C[C@@H](c2cccc3nc(N)ccc23)Nc2c(F)cnn21` [GSK137, 5-((5S,7R)-3-Fluoro-7-(2-methylpyridin-3-yl)-4,5,6,7-tetrahydropyrazolo[1,5-a]pyrimidin-5-yl)quinolin-2-amine], which “pIC50 Rat TR-FRET SMRT” value (rat BCL6 and SMRT) is on record?
Its value is 7.6.

And the IC50 [1]?
Its IC50 is 25.1 nM.

What about the “pIC50 Mouse TR-FRET SMRT” value (mouse BCL6 and SMRT) of the same compound?
Its value is 7.8.
